Reference: patent US20170196878A1, “USE OF CBP/EP300 AND BET INHIBITORS FOR TREATMENT OF CANCER” (GENENTECH, INC., priority 2014, published 2017)
pEC50: −log10 of the molar value.

Columns and labels:
[1] = target: T1, ZsGreen-bromodomain fusion protein (CBP) (Homo sapiens, UniProt Q92793); assay: Release of chromatin-bound ZsGreen-bromodomain fusion protein (CBP), high content imaging of nuclear foci; format: cell-based; settings: number of nuclear foci, read-out: Calculated EC50, release of chromatin-bound ZsGreen-CBP bromodomain fusion protein
T1 construct: expressed in transfected cells
T1 sequence (Q92793 1085-1192 limits assumed): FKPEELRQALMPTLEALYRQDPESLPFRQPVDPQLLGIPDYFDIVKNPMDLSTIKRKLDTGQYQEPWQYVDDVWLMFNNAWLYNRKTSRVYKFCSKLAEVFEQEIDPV
Description: (§1) Release of chromatin-bound ZsGreen-bromodomain fusion proteins in the presence of compound was monitored with high content imaging. Each curve represents the indicated compound and the indicated fusion protein (BRD4 or CBP). The number of nuclear foci increases with compound target engagement (values are mean of four fields per well of two technical replicates, +SEM).

[2] = target: ZsGreen-bromodomain fusion protein (BRD4) (Homo sapiens, UniProt O60885); assay: Release of chromatin-bound ZsGreen-bromodomain fusion protein (BRD4), high content imaging of nuclear foci; settings: read-out: Calculated EC50, release of chromatin-bound ZsGreen-BRD4 bromodomain fusion protein, number of nuclear foci
Description: as §1

[3] = test system: IRF4 mRNA expression; assay: IRF4 mRNA expression in LP-1 cells by q-RTPCR; format: cell-based; settings: 6 h, q-RTPCR normalized to GAPDH
Experimental: FIG. 8. CBP/EP300 and BET bromodomain inhibition have distinct transcriptional effects. […] Expression values for replicate compound treated samples were normalized to paired DMSO controls to obtain log2 fold change values. […] Cells were treated with compound for 6 h, and mRNA expression was assessed with q-RTPCR and normalized to GAPDH. Values represent the mean of n=3, ±SEM. […] LP-1 cells were treated with a titration of CPI203 for 6 h, and IRF4 expression was determined by q-RTPCR and normalized to GAPDH. Values represent the mean of n=2, ±SEM.

Question: What does the source list for `Cc1sc2c(c1C)C(c1ccc(Cl)cc1)=N[C@@H](CC(N)=O)c1nnc(C)n1-2` [CPI203]?
Answer: pEC50 [1]: 5.74; pEC50 [2]: 7.10; IRF4 mRNA expression [3]: does not directly regulate

Question: With `CCC(=O)N1CCOc2c(cc(-c3ccc(OC)c(OC)c3)cc2OC[C@H]2CCCN(C)C2)C1` [I-CBP112] as the compound, how does the pEC50 [1] read?
Answer: 5.59

Question: And the pEC50 [2]?
Answer: < 4.70

Question: How did the pEC50 [2] turn out when `COc1ccc(CCc2nc3cc(-c4c(C)noc4C)ccc3n2C[C@H](C)N2CCOCC2)cc1Cl` [SGC-CBP30] was run?
Answer: 4.67

Question: What about the “IRF4 mRNA expression” value [3] of the same compound?
Answer: Dose-dependent inhibition
